Source: BigSolDB 2.1

Cc1ccc(S(=O)(=O)[O-])cc1Cl.[Na+]
Conditions	solubility (mole fraction)
in DMF, 280.6 K	0.0203
in DMF, 286.3 K	0.0206
in DMF, 291.3 K	0.0208
in DMF, 297.6 K	0.0212
in DMF, 304.8 K	0.0216
in DMF, 310.7 K	0.0223
in DMF, 314.8 K	0.0228
in DMF, 319 K	0.0235
in DMF, 322.1 K	0.024
in DMF, 327.6 K	0.0252
in DMF, 333.3 K	0.0268
in DMSO, 294 K	0.086
in DMSO, 299.6 K	0.0868
in DMSO, 304.9 K	0.0878
in DMSO, 310.6 K	0.0887
in DMSO, 314.5 K	0.0894
in DMSO, 319.2 K	0.0902
in DMSO, 323.5 K	0.0912
in DMSO, 330.2 K	0.0929
in DMSO, 335.2 K	0.0947
in formic acid, 283 K	0.037
in formic acid, 288.9 K	0.0383
in formic acid, 295.9 K	0.0398
in formic acid, 301.4 K	0.0415
in formic acid, 307.3 K	0.0431
in formic acid, 313 K	0.0446
in formic acid, 319.5 K	0.0458
in formic acid, 324.9 K	0.0475
in formic acid, 331.1 K	0.0491
in formic acid, 335.5 K	0.0503
in methanol, 287.1 K	0.00409
in methanol, 293 K	0.00447
in methanol, 297.1 K	0.0047
in methanol, 302.6 K	0.00498
in methanol, 306.1 K	0.00524
in methanol, 311.8 K	0.0055
in methanol, 316.7 K	0.00579
in methanol, 321.5 K	0.00607
in methanol, 327 K	0.00637
in methanol, 333.1 K	0.0067
in water, 281 K	0.00416
in water, 284 K	0.00437
in water, 288.1 K	0.00478
in water, 292.2 K	0.0053
in water, 296.5 K	0.00592
in water, 301.2 K	0.00661
in water, 305.6 K	0.00733
in water, 310.7 K	0.00835
in water, 314.6 K	0.0092
in water, 318.7 K	0.0101
in water, 322.4 K	0.0111
in water, 326.2 K	0.0122
in water, 331.1 K	0.0139
in water, 335.1 K	0.0154
